Key:
Assay type in all cases: cell-based
[1] = tested on: Listeria monocytogenes 092; assay: Experiment 2: octanoate esterase substrates with different Indoxyl-based chromogenic markers; parameters: key to I (intensity of the color): —: the symbol “-” corresponds to the absence of color or intensity; 0 corresponds to no activity; 0.1 corresponds to a trace of color; 0.5 corresponds to very pale coloration; 1 corresponds to clear but low-intensity coloration; 1.5 corresponds to a degree of coloration intermediate between scores 1 and 2; 2 corresponds to clear coloration of moderate intensity; 2.5 corresponds to a degree of coloration intermediate between scores 2 and 3; 3 corresponds to intense coloration; 3.5 corresponds to a degree of coloration intermediate between scores 3 and 4; 4 corresponds to very intense coloration; conditions: 37° C., substrate 250 mg/l
Protocol: (§1) In Table 1 above, as in the following Tables, C represents the color of the colonies after incubation, I represents the intensity of the color, and the symbol “-” corresponds to the absence of color or intensity; finally, IT defines the incubation time. It should be noted that the intensity of the color is scored on an arbitrary scale but one which is consistent for all the biological specimens and media tested. This scale is valid for this experiment as well as all those that follow. It can be defined in the following way: • 0 corresponds to no activity, • 0.1 corresponds to a trace of color, • 0.5 corresponds to very pale coloration, • 1 corresponds to clear but low-intensity coloration, • 1.5 corresponds to a degree of coloration intermediate between scores 1 and 2, • 2 corresponds to clear coloration of moderate intensity, • 2.5 corresponds to a degree of coloration intermediate between scores 2 and 3, • 3 corresponds to intense coloration, • 3.5 corresponds to a degree of coloration intermediate between scores 3 and 4, • 4 corresponds to very intense coloration.
(§2) A stock solution of each substrate at a concentration of 40 g/l was made up in a mixture of 40% Dimethylsulfoxide and 60% Tween 20. An appropriate volume was added to four Columbia-type media while cooling to give a final substrate concentration of 250 mg/l. These dishes were divided into three areas and then each area was inoculated with a suspension (density=0.5 McFarland) of microorganisms taken from either the Applicant's own collection or the ATCC. The dishes were incubated for 48 hours at 37° C. The colonies which grew were examined by eye after 24 and 48 hours of incubation. Both the color and the intensity of the color of the colonies were recorded.

[2] = tested on: Listeria monocytogenes ATCC 19117; assay: as above; parameters: key to I (intensity of the color): —: the symbol “-” corresponds to the absence of color or intensity; 0 corresponds to no activity; 0.1 corresponds to a trace of color; 0.5 corresponds to very pale coloration; 1 corresponds to clear but low-intensity coloration; 1.5 corresponds to a degree of coloration intermediate between scores 1 and 2; 2 corresponds to clear coloration of moderate intensity; 2.5 corresponds to a degree of coloration intermediate between scores 2 and 3; 3 corresponds to intense coloration; 3.5 corresponds to a degree of coloration intermediate between scores 3 and 4; 4 corresponds to very intense coloration; conditions: 37° C., substrate 250 mg/l
Protocol: as §1, §2

[3] = tested on: Listeria monocytogenes ATCC 19115; assay: as above; parameters: key to I (intensity of the color): —: the symbol “-” corresponds to the absence of color or intensity; 0 corresponds to no activity; 0.1 corresponds to a trace of color; 0.5 corresponds to very pale coloration; 1 corresponds to clear but low-intensity coloration; 1.5 corresponds to a degree of coloration intermediate between scores 1 and 2; 2 corresponds to clear coloration of moderate intensity; 2.5 corresponds to a degree of coloration intermediate between scores 2 and 3; 3 corresponds to intense coloration; 3.5 corresponds to a degree of coloration intermediate between scores 3 and 4; 4 corresponds to very intense coloration; conditions: 37° C., substrate 250 mg/l
Protocol: as §1, §2

Listeria seeligeri 011 = assay: Experiment 3: detecting an esterase activity in liquid medium (API-type strips); parameters: key: —: the symbol “-” corresponds to the absence of color or intensity; 0 corresponds to no activity; 0.1 corresponds to a trace of color; 0.5 corresponds to very pale coloration; 1 corresponds to clear but low-intensity coloration; 1.5 corresponds to a degree of coloration intermediate between scores 1 and 2; 2 corresponds to clear coloration of moderate intensity; 2.5 corresponds to a degree of coloration intermediate between scores 2 and 3; 3 corresponds to intense coloration; 3.5 corresponds to a degree of coloration intermediate between scores 3 and 4; 4 corresponds to very intense coloration; conditions: 37° C.
Protocol: as §1
(§3) These substrates were lyophilized in the wells of API-type strips (Registered Trademark). Before use, the substrates contained in the wells were resuspended in an agar-free Columbia-type inoculation medium. These wells were then inoculated with a suspension (density=2 McFarland) of microorganisms taken from either the Applicant's own collection or the ATCC. The strips were incubated for 8 hours at 37° C. The colonies which grew were examined by eye after 4, 6 and 8 hours of incubation.
(§4) The intensity of the color of the colonies was recorded.

[4] = tested on: Listeria monocytogenes ATCC 19115; assay: as above; parameters: key: —: the symbol “-” corresponds to the absence of color or intensity; 0 corresponds to no activity; 0.1 corresponds to a trace of color; 0.5 corresponds to very pale coloration; 1 corresponds to clear but low-intensity coloration; 1.5 corresponds to a degree of coloration intermediate between scores 1 and 2; 2 corresponds to clear coloration of moderate intensity; 2.5 corresponds to a degree of coloration intermediate between scores 2 and 3; 3 corresponds to intense coloration; 3.5 corresponds to a degree of coloration intermediate between scores 3 and 4; 4 corresponds to very intense coloration; conditions: 37° C.
Protocol: as §1, §3, §4

[5] = tested on: Listeria grayi ATCC 19120; assay: as above; parameters: key: —: the symbol “-” corresponds to the absence of color or intensity; 0 corresponds to no activity; 0.1 corresponds to a trace of color; 0.5 corresponds to very pale coloration; 1 corresponds to clear but low-intensity coloration; 1.5 corresponds to a degree of coloration intermediate between scores 1 and 2; 2 corresponds to clear coloration of moderate intensity; 2.5 corresponds to a degree of coloration intermediate between scores 2 and 3; 3 corresponds to intense coloration; 3.5 corresponds to a degree of coloration intermediate between scores 3 and 4; 4 corresponds to very intense coloration; conditions: 37° C.
Protocol: as §1, §3, §4

With `CCCCCCCC(=O)Oc1c[nH]c2cc(Cl)ccc12` [Pink-C8, 6-Chloro-3-indolyl octanoate] the “C (color of the colonies)” value ([1]; IT 24 h) was “pink”, the “I (intensity of the color)” value ([1]; IT 24 h) was 1.5 and the “C (color of the colonies)” value ([1]; IT 48 h) was “pink”. For the same compound, the “I (intensity of the color)” value ([1]; IT 48 h) was 2, the “C (color of the colonies)” value ([2]; IT 24 h) was “pink” and the “I (intensity of the color)” value ([2]; IT 24 h) was 0.5. The “C (color of the colonies)” value ([2]; IT 48 h) was “pink”, the “I (intensity of the color)” value ([2]; IT 48 h) was 1 and the “C (color of the colonies)” value ([3]; IT 24 h) was “pink”. The “I (intensity of the color)” value ([3]; IT 24 h) was 0.5, the “C (color of the colonies)” value ([3]; IT 48 h) was “pink” and the “I (intensity of the color)” value ([3]; IT 48 h) was 1. The “I (intensity of the color)” value (Listeria seeligeri 011; IT 4 h) was “—”, the “I (intensity of the color)” value (Listeria seeligeri 011; IT 6 h) was “—” and the “I (intensity of the color)” value (Listeria seeligeri 011; IT 8 h) was “—”. The “I (intensity of the color)” value ([4]; IT 4 h) was “—”, the “I (intensity of the color)” value ([4]; IT 6 h) was “—” and the “I (intensity of the color)” value ([4]; IT 8 h) was “—”. For the same compound, the “I (intensity of the color)” value ([5]; IT 4 h) was “—”, the “I (intensity of the color)” value ([5]; IT 6 h) was “—” and the “I (intensity of the color)” value ([5]; IT 8 h) was “—”.
In the case of `CCCCCCCC(=O)Oc1c[nH]c2ccc(Br)c(Cl)c12` [X-C8, 5-Bromo-4-chloro-3-indolyl octanoate], the “C (color of the colonies)” value ([1]; IT 24 h) is reported as “turquoise”, the “I (intensity of the color)” value ([1]; IT 24 h) is reported as 3 and the “C (color of the colonies)” value ([1]; IT 48 h) is reported as “turquoise”. For the same compound, the “I (intensity of the color)” value ([1]; IT 48 h) was 3.5, the “C (color of the colonies)” value ([2]; IT 24 h) was “turquoise” and the “I (intensity of the color)” value ([2]; IT 24 h) was 2. For the same compound, the “C (color of the colonies)” value ([2]; IT 48 h) was “turquoise”, the “I (intensity of the color)” value ([2]; IT 48 h) was 3 and the “C (color of the colonies)” value ([3]; IT 24 h) was “turquoise”. For the same compound, the “I (intensity of the color)” value ([3]; IT 24 h) was 2.5, the “C (color of the colonies)” value ([3]; IT 48 h) was “turquoise” and the “I (intensity of the color)” value ([3]; IT 48 h) was 3. The “I (intensity of the color)” value (Listeria seeligeri 011; IT 4 h) was “—”, the “I (intensity of the color)” value (Listeria seeligeri 011; IT 6 h) was 0.5 and the “I (intensity of the color)” value (Listeria seeligeri 011; IT 8 h) was 0.5. For the same compound, the “I (intensity of the color)” value ([4]; IT 4 h) was “—”, the “I (intensity of the color)” value ([4]; IT 6 h) was 1 and the “I (intensity of the color)” value ([4]; IT 8 h) was 1.5. The “I (intensity of the color)” value ([5]; IT 4 h) was “—”, the “I (intensity of the color)” value ([5]; IT 6 h) was “—” and the “I (intensity of the color)” value ([5]; IT 8 h) was “—”.
For `CCCCCCCC(=O)Oc1c[nH]c2ccc(Br)cc12` [Blue-C8, 5-Bromo-3-indolyl octanoate], the “C (color of the colonies)” value ([1]; IT 24 h) was “gray”, the “I (intensity of the color)” value ([1]; IT 24 h) was 1.5 and the “C (color of the colonies)” value ([1]; IT 48 h) was “gray”. For the same compound, the “I (intensity of the color)” value ([1]; IT 48 h) was 2.5, the “C (color of the colonies)” value ([2]; IT 24 h) was “gray” and the “I (intensity of the color)” value ([2]; IT 24 h) was 1. For the same compound, the “C (color of the colonies)” value ([2]; IT 48 h) was “gray”, the “I (intensity of the color)” value ([2]; IT 48 h) was 2 and the “C (color of the colonies)” value ([3]; IT 24 h) was “gray”. The “I (intensity of the color)” value ([3]; IT 24 h) was 1, the “C (color of the colonies)” value ([3]; IT 48 h) was “gray” and the “I (intensity of the color)” value ([3]; IT 48 h) was 2.
In the case of `CCCCCCCC(=O)Oc1c[nH]c2cc(Cl)c(Br)cc12` [Magenta-C8, 5-Bromo-6-chloro-3-indolyl octanoate], the “C (color of the colonies)” value ([1]; IT 24 h) is reported as “purple”, the “I (intensity of the color)” value ([1]; IT 24 h) is reported as 3 and the “C (color of the colonies)” value ([1]; IT 48 h) is reported as “purple”. For the same compound, the “I (intensity of the color)” value ([1]; IT 48 h) was 3, the “C (color of the colonies)” value ([2]; IT 24 h) was “purple” and the “I (intensity of the color)” value ([2]; IT 24 h) was 1.5. For the same compound, the “C (color of the colonies)” value ([2]; IT 48 h) was “purple”, the “I (intensity of the color)” value ([2]; IT 48 h) was 3.5 and the “C (color of the colonies)” value ([3]; IT 24 h) was “purple”. For the same compound, the “I (intensity of the color)” value ([3]; IT 24 h) was 2, the “C (color of the colonies)” value ([3]; IT 48 h) was “purple” and the “I (intensity of the color)” value ([3]; IT 48 h) was 3. The “I (intensity of the color)” value (Listeria seeligeri 011; IT 4 h) was “—”, the “I (intensity of the color)” value (Listeria seeligeri 011; IT 6 h) was “—” and the “I (intensity of the color)” value (Listeria seeligeri 011; IT 8 h) was “—”. For the same compound, the “I (intensity of the color)” value ([4]; IT 4 h) was “—”, the “I (intensity of the color)” value ([4]; IT 6 h) was “—” and the “I (intensity of the color)” value ([4]; IT 8 h) was 0.5. The “I (intensity of the color)” value ([5]; IT 4 h) was “—”, the “I (intensity of the color)” value ([5]; IT 6 h) was “—” and the “I (intensity of the color)” value ([5]; IT 8 h) was “—”.
